Measured values from patent publication US20120232062A1, “AZAINDAZOLES TO TREAT FLAVIVIRIDAE VIRUS INFECTION” (EIGER BIOPHARMACEUTICALS, INC., priority 2009, published 2012).

target: T1, hERG channel (Homo sapiens, UniProt Q12809); assay: hERG channel assay; assay type: cell-based; settings: CHO cell line expressing hERG, whole cell recordings
T1 construct: host or cells: CHO (Chinese Hamster Ovary), stably transfected
Experimental: The most common mechanism for these adverse events is the inhibition of one or more cardiac potassium channels, in particular hERG. This current is important for cardiac myocyte repolarization and is a common target for drugs that prolong the QT interval. Test articles in this study were therefore characterized to determine their ability to inhibit the hERG channel. Ion channel activity was measured using a stably transfected Chinese Hamster Ovary (CHO) cell line expressing the hERG mRNA. The pharmacology of this cloned channel expressed in the CHO cell line is very similar to that observed in native tissue.
Cells: AVIVA's CHO cell line, which stably expresses hERG channels, was used for the study. Cells were cultured in DMEM/F12 containing 10% FBS, 1% penicillin/streptomycin and 500 μg/ml G418. Before testing, cells were harvested using Accumax (Innovative Cell Technologies).
Solutions: For electrophysiological recordings, the following solutions were used. External Solution: 2 mM CaCl2; 2 mM MgCl2; 4 mM KCl; 150 mM NaCl; 10 mM Glucose; 10 mM HEPES; 310-320 mOsm; pH 7.4 (adjusted with 1M NaOH). Internal Solution: 140 mM KCl; 10 mM MgCl2; 6 mM EGTA; 5 mM HEPESNa; […]; 300-320 mOsm; pH 7.25 (adjusted with 1M KOH).
Electrophysiology: Whole cell recordings were performed using PX 7000A (Axon Instruments) with VIVA's SealChip™ technology. Cells were voltage clamped at a holding potential of −80 mV. The hERG current was then activated by a depolarizing step to −50 mV for 300 ms. This first step at −50 mV was used as a baseline for measuring peak amplitude of the tail current. Next, a voltage step to +20 mV was applied for 5 s to activate the channels. Finally a step back to −50 mV for 5 seconds removed activation and the deactivating tail current was recorded.
Compound Handling and Dilutions: All compounds were prepared from either 10 or 30 mM DMSO stock solutions. Solutions were mixed by sonication for 20 min, followed by vigorous vortexing. Prior to testing, compounds were diluted to test concentrations in glass vials using External Solution. Dilutions were prepared no longer than 20 min prior to use. Equal amounts of DMSO (0.1%) were present in all final dilutions.
Electrophysiology Procedures: After achieving whole cell configuration, cells were monitored for 90 s to assess stability and then washed with External Solution for 66 s. The voltage protocol described above was then applied to the cells every 12 s throughout the procedure. Only stable cells with recording parameters above threshold (see Quality Control section) were allowed to enter the drug addition procedure. External solution containing 0.1% DMSO (vehicle) was applied to the cells to establish a baseline. After allowing the current to stabilize for 3 to 5 min, test articles were applied. Test article solutions were added to cells in 4 separate additions. Cells were kept in test solution until effect of the test article reached steady state, to a maximum of 12 min. Next, 1 μM cisapride (positive control) was added. Finally, washout with External Solution was performed until the recovery current reached a steady state.
Data Analysis: Data analysis was performed using DataXpress (Axon Instruments), Clampfit (Axon Instruments) and Origin (Originlab Corporation) software.

T1 sequence (Q12809 whole entry): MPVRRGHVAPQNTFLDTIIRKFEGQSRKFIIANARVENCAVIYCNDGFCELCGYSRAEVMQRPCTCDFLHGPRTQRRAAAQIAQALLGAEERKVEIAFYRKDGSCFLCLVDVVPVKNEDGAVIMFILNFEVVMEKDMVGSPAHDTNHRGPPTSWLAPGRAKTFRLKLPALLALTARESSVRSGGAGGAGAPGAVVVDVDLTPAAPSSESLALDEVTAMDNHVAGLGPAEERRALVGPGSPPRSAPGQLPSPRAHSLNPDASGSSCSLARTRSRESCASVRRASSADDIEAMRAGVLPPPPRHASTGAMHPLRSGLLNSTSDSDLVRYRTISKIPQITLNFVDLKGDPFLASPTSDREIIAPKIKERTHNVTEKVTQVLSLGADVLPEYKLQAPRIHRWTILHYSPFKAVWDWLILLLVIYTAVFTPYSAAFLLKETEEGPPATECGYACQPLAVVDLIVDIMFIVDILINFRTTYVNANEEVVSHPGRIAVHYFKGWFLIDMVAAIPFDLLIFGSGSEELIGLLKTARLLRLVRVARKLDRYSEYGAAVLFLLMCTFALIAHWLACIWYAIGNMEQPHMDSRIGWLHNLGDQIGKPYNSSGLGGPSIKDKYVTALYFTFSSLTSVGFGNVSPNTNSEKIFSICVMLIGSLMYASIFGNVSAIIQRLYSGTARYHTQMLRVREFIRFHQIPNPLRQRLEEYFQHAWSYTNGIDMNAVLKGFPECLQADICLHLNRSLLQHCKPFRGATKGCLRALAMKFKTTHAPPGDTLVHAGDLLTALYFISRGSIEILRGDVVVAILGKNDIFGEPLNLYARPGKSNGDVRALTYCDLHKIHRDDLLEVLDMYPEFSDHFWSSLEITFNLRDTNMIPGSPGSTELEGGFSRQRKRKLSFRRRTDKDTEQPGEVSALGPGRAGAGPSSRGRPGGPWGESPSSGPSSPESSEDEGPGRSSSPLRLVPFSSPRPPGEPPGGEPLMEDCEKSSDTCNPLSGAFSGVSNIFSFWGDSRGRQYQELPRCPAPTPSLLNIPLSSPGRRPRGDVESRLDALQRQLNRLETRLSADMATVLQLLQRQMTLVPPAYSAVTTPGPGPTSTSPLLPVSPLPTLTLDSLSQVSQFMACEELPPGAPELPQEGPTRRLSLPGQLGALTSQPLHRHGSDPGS

SMILES | IC50 [µM]
Cn1nc(C(=O)NC2CCNCC2)c2ccc(N3CCCCCC3)nc21.O=C(O)C(F)(F)F.O=C(O)C(F)(F)F [compound 697] | > 10
CCC(CC)Oc1ccc2c(C(=O)NC3CCNCC3)n[nH]c2n1 [compound 726] | > 10
Clc1ccc(Cn2nc(COCCCN3CCCCC3)c3ccc(N4CCCCCC4)nc32)cc1 [compound 749] | 3.3
CCC(CC)Oc1ccc2c(COCC3CCCNC3)nn(Cc3ccc(Cl)cc3)c2n1.O=C(O)C(F)(F)F (stereo not drawn) [compound 755] | > 10
O=C(NC1CCNCC1)c1nn(C(=O)C2CCCCC2)c2nc(N3CCCCCC3)ccc12.O=C(O)C(F)(F)F.O=C(O)C(F)(F)F.O=C(O)C(F)(F)F [compound 989] | > 10
Cn1nc(C(=O)NC2CCN(CCN3CCCCC3)CC2)c2ccc(N3CCCCCC3)nc21 [compound 1047] | 9.5
Cn1nc(C(=O)NC2CCN(CC3CCCCC3)CC2)c2ccc(N3CCCCCCC3)nc21 [compound 1062] | > 10
CCN1CCC(NC(=O)c2nn(C)c3nc(N4CCCCCC4)ccc23)CC1 [compound 1595] | 1.1
Cn1nc(C(=O)NC2CCN(CCN3CCCC3)CC2)c2ccc(N3CCCCCC3)nc21 [compound 1597] | 9.1
